Test results from paper PMC11488110 (Theranostics, 2024).

Tests used:
[1] = tested on: SH-SY5Y cells; test: BACE1 expression (western blot) in SH-SY5Y cells; format: cell-based, human; conditions: 24 h
Method: For the in vitro co-transfection assay, CV-1 monkey kidney cells were cultured in Dulbecco's modified Eagle's medium (DMEM) supplemented with 10% resin-charcoal-stripped fetal bovine serum (FBS), 100 U/mL penicillin, and 100 µg/mL streptomycin. To investigate the anti-inflammatory effects of 5a, BV-2 microglial cells were cultured in RPMI 1640 (Biowest) supplemented with 10% heat-inactivated FBS (Biowest), 2.05 mM L-glutamine (Gibco), and 100 U/mL penicillin/streptomycin (Gibco). Primary mouse astrocytes were isolated from postnatal day 1 C57BL/6N mouse pups. The cerebral cortices collected with the meninges removed were triturated by gentle pipetting and centrifuged. Primary astrocytes were resuspended and cultured in DMEM supplemented with 10% heat-inactivated FBS (Biowest), 10% heat-inactivated horse serum (Gibco), and 100 U/mL penicillin/streptomycin (Gibco). […]
Total proteins were extracted from cells or mouse brain tissues using radioimmunoprecipitation assay (RIPA) buffer (Sigma-Aldrich) containing a protease and phosphatase inhibitor cocktail (Roche Diagnostics). […] Protein concentrations were determined using Pierce® BCA Protein Assay Kit (Thermo Fisher Scientific). […] The western blot bands were analyzed using ImageJ software (NIH) and β-Actin or glyceraldehyde 3-phosphate dehydrogenase (GAPDH) were used as a loading control. […]

[2] = tested on: C57BL/6N mice with scopolamine-induced cognitive impairment; test: Scopolamine-induced memory impairment mouse model; format: in vivo
[3] = Metabolic stability assay in liver microsomes; format: in vitro ADME, rat; conditions: 1 μM, 30 min
Method: The metabolic stability assay was performed by incubation of human and selected animal liver microsomes (dog, rat, and mouse) with the test compound at a final concentration of 1 μM, in the presence of 0.5 mg/ml microsomal protein and NADPH-regeneration system, in a total volume of 100 μL phosphate buffer 100 mM (pH 7.4) at 37 °C. The incubation was started by introducing the NADPH-regeneration system and terminated by adding 40 μL of ice-cold acetonitrile at 0- and 30 min. Precipitated proteins were removed by centrifugation at 10,000 g and 4 °C for 5 min. Aliquots of the supernatant were injected onto an LC-MS/MS system. Incubations terminated prior to addition of the NADPH-regeneration system (time point, 0 min) were used as standards, defined as 100%. Percent of the parent compound remaining was calculated by comparing peak areas.
(§1) Ta b l e S2 . CYP inhibition, microsomal stability, and hERG in hibition of 5a .
(§2) CYP inhibitiona Microsomal stabilityb
(§3) ( % of c ont rol ac ti vit y) (% of remaining compound) hERG inhibitionc (IC50, μ M) […]
aCytochrome P450 (CYP450) enzyme activity was measured by incubating CYP450 enzyme isotype-specific substrates and liver microsomes in the presence of the test compound (10 μM) for 15 min. […]

[4] = target: T1, hERG channel (Homo sapiens, UniProt Q12809); test: biochemical; conditions: fluorescence polarization binding assay
T1 construct: purchased Invitrogen PV5365
Method: An hERG channel binding assay was performed using the Predictor hERG Fluorescence Polarization Assay Kit (PV5365, Invitrogen). […] Fluorescence intensity (excitation at 530 nm, emission at 590 nm) was measured using a multi-mode microplate reader Synergy Neo (Biotek). […]
as §1, §2, §3
aCytochrome P450 (CYP450) enzyme activity was measured by incubating CYP450 enzyme isotype-specific substrates and liver microsomes in the presence of the test compound (10 μM) for 15 min. Data are expressed as percent of CYP enzyme activity relative to that of t he v ehicle-treated control. bThe test compound was incubated with microsomes for 30 min and the percentage of the remaining compound was measured via liquid chromatography- tandem mass spectrometry (LC-MS/MS). cHuman Ether-à -go -go -related gene (hERG) channel binding assay was performed using a predictor hERG fluorescence polarization assay (Invitrogen); IC50 values were calculated with non-linear regression fit with four parameters. a- cThe results of these three assays were obtained through the in vitro ADME/Tox study service of KMEDIhub, a contract research organization (CRO). The reported measurements are the mean of […]

[5] = target: T2, hPPARγ (Homo sapiens, UniProt P37231); test: In vitro co-transfection (PPRE-luciferase) assay in CV-1 cells, hPPARγ; format: cell-based; conditions: 24 h, read-out: Potency (EC50) hPPARγ
T2 sequence (P37231 1-505): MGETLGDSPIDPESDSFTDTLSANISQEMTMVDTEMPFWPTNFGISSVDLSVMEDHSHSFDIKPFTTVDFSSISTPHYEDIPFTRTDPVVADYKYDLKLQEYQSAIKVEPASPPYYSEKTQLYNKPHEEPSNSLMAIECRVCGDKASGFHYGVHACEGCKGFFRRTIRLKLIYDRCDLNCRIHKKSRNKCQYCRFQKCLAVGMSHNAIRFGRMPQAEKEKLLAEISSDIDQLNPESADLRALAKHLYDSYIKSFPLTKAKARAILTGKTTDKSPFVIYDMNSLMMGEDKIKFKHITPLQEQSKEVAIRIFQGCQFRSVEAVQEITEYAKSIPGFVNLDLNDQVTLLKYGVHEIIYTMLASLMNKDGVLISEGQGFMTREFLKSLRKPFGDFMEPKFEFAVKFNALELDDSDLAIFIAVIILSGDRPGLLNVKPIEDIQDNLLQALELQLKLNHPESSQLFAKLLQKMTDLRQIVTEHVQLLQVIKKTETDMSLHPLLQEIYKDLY

[6] = 30 mg/kg/day p.o. 5 days before scopolamine 1 mg/kg i.p.

T1 sequence (Q12809 whole entry): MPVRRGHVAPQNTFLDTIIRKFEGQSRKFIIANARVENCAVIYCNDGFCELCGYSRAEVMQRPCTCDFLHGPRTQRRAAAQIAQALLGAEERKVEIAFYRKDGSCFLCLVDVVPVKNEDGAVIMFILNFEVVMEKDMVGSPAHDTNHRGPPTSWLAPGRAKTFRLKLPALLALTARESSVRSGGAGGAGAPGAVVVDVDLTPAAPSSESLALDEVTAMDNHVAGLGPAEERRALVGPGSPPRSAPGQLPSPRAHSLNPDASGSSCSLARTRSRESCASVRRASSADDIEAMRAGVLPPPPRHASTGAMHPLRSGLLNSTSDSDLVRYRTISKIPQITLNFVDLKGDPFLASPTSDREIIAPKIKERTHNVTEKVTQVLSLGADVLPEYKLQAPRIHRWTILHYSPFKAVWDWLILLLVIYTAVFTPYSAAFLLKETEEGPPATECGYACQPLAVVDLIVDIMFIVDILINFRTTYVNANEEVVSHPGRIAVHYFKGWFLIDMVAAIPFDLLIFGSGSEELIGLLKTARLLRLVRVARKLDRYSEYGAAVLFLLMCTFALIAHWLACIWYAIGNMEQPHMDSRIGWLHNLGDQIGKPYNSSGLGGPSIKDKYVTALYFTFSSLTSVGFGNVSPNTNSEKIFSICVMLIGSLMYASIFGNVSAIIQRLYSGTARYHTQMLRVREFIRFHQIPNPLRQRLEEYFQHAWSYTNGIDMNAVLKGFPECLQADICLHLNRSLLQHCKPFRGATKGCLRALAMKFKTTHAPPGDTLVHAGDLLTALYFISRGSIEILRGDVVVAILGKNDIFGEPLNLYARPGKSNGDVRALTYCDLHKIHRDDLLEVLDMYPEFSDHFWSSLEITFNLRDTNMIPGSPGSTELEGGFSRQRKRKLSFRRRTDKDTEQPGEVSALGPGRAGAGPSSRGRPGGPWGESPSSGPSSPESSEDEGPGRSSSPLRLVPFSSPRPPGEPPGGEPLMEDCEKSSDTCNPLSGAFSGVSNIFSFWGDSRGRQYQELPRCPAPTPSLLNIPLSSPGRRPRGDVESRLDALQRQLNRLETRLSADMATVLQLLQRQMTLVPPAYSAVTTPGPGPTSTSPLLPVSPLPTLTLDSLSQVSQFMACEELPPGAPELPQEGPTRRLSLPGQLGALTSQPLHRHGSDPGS

Cc1cc(SCc2[se]c(-c3ccc(C(F)(F)F)cc3)nc2C)ccc1OCC(=O)O [Compound 5a, {2-Methyl-4-[4-methyl-2-(4-trifluoromethyl-phenyl)-selenazol-5-yl-methylsulfanyl]-phenoxy}-acetic acid]
BACE1 expression in SH-SY5Y cells [1]: dose-dependently reduced the expression of BACE1
Y-maze spontaneous alternation [2, 6]: prevented the decrease in alternation percentage
Y-maze total number of arm entries [2, 6]: without inducing any changes
Passive avoidance step-through latency ([2]; 30 mg/kg/day p.o., scopolamine 1 mg/kg i.p.): mitigated this effect
Memory in Y-maze, passive avoidance and Morris water maze ([2]; post-administration, 10 mg/kg p.o.): significantly restored the memory impairment
Memory in Y-maze, passive avoidance and Morris water maze ([2]; post-administration, 30 mg/kg p.o.): maximum efficacy
Cognitive improvement compared with GW501516 ([2]; post-administration, same dose 30 mg/kg): superior in vivo efficacy
Microsomal stability, Rat (% of remaining compound) [3]: 73.3 % of remaining compound
hERG inhibition (IC50) [4]: low inhibitory effects
IC50 ([4]; read-out: hERG inhibition (IC50)): 9 µM
EC50 [5]: > 10 µM
